The test relates to Mycobacterium avium subsp. paratuberculosis. The experiment in a line: Ability to act as growth factor for Mycobacterium paratuberculosis at 2.4 uM concentration, expressed as growth index. It is filed as functional, mycobacteria paratuberculosis.
`COC(=O)[C@H](CCCCN(O)C(=O)/C=C/c1ccccc1)NC(=O)CC(O)(CC(=O)N[C@@H](CCCCN(O)C(=O)/C=C/c1ccccc1)C(=O)OC)C(=O)O` returned a GI of 2.5.
For the compound `CCCCC/C=C/C(=O)N(O)CCCNC(=O)CC(O)(CC(=O)NCCCN(O)C(=O)/C=C/CCCCC)C(=O)OC(C)(C)C`, the GI is 0.69.
To `O=C(CC(O)(CC(=O)NCCCN(O)C(=O)/C=C/c1ccccc1)C(=O)O)NCCCN(O)C(=O)/C=C/c1ccccc1` belongs 0.76; to `CC(=O)N(O)CCCCCNC(=O)CCC(=O)N(O)CCCCCNC(=O)CCC(=O)N(O)CCCCCN` [DEFEROXAMINE], 0.92; to `O=C(CC(O)(CC(=O)NCCCCN(O)C(=O)/C=C/c1ccccc1)C(=O)O)NCCCCN(O)C(=O)/C=C/c1ccccc1`, 1.5.
To `CCCCC/C=C/C(=O)N(O)CCCNC(=O)CC1(O)CC(=O)N(CCCN(O)C(=O)/C=C/CCCCC)C1=O` (centres undefined) belongs 4.6; to `CC(C)(C)OC(=O)C(O)(CC(=O)NCCCN(O)C(=O)/C=C/c1ccccc1)CC(=O)NCCCN(O)C(=O)/C=C/c1ccccc1`, 4.6.
To `CCCCCCCCCCCCC/C=C/C(=O)N(O)CCCC[C@H](NC(=O)[C@@H]1COC(c2ccccc2O)=N1)C(=O)OC(C(C)C)C(C)C(=O)N[C@H]1CCCCN(O)C1=O` (some centres undefined) belongs 1; to `CCCCC/C=C/C(=O)N(O)CCCNC(=O)CC(O)(CC(=O)NCCCN(O)C(=O)/C=C/CCCCC)C(=O)O`, 1.

The values above are taken from ChEMBL document CHEMBL1135988, “Synthesis and biological evaluation of new citrate-based siderophores as potential probes for the mechanism of iron uptake in mycobacteria” (2002).
